# Where two headings read alike, the source gives them in different places.
# Experiments:
# [1] = tested on: human ovarian cancer cell line A2780; assay: Cell growth assay (crystal violet dye), A2780 cells; format: cell-based; conditions: 72 hrs exposure, read-out: IC50 (cell growth inhibition)
# Protocol: (§1) The human ovarian cancer cell line A2780 and a platinum-resistant subline selected in vitro by stepwise increases of cisplatin concentration in the medium were from University of Modena and Reggio Emilia. The cisplatin resistant A2780 cells were challenged weekly with 50 uM cisplatin for 1 hr. Both cell lines were maintained in RPMI 1640 medium with 10% (vol/vol) fetal calf serum, penicillin (62.9 mg/L), and streptomycin (100 mg/L) (GIBCO).
# (§2) Cell growth assay. Cell growth was determined by a modification of the crystal violet dye assay (Analytical biochemistry, 182, 16 1989). On selected days, after removal of the tissue culture medium, the cell monolayer was fixed with methanol prior to staining with 0.2% crystal violet solution in 20% methanol for at least 30 minutes. After washing several times with distilled water to remove the dye excess, the cells were let to dry. The incorporated dye was solubilized in acidic isopropanol (1N HCl : 2-propanol, 1:10). After appropriate dilution, dye was determined spectrophotometrically at 540 nm. The extracted dye was proportional to cell number. Percentage of cytotoxicity was calculated by comparing the absorbance of cultures exposed to the compounds of the invention to non-exposed (control) cultures. Percentage of cytotoxicity is here reported as the half maximal inhibitory concentration (IC50), which is a measure of the effectiveness of a compound of the invention in inhibiting cell growth by half with respect to control (100%).
# [2] = tested on: cisplatin resistant A2780 cells (A2780/CP); assay: Cell growth assay (crystal violet dye), A2780/CP cells; format: cell-based, human; conditions: 72 hrs exposure, read-out: IC50 (cell growth inhibition)
# Protocol: as §1, §2
# [3] = tested on: HCT 116 colon carcinoma cell line; assay: Cell proliferation MTT assay, HCT 116; format: cell-based; conditions: Homo sapiens, HCT-116, 24 h, read-out: MTT cell proliferation, percentage compared to control cells considered as 100%; for activity at 1 µM: HCT 116, compound at 1 uM, 24 h exposure; for activity at 10 µM: HCT 116, compound at 10 uM
# Protocol: (§3) Cell cultures and treatments. Human tumor cells (HeLa from uterin cervix and HCT116 from colon carcinoma) were grown at 37° C. in humidified atmosphere containing 5% CO2 in D-MEM supplemented with 10% FCS, 4 mM glutamine, 2 mM Na pyruvate, 100 U/mL penicillin and 0.1 mg/mL streptomycin (all reagents were from Celbio, Pero, Italy). HeLa cells are the most widely used human tumor cell line; HCT 116 colon carcinoma cell line has proven to be extremely resistant to conventional chemotherapy. Cells were treated with the compounds of the invention at a fixed dose of 10 uM for 24 h, eventually followed by 24 of recovery in drug free medium. As a positive control of growth inhibition, cells were treated with 10 uM etoposide. Some of the inventive were also assayed at a dose of 1 uM.
# (§4) Cell proliferation assays—MTT assay. Cells are seeded in 96 multiwell-plates at the density of 10^3/100 μl (except fibroblasts that are seeded at the density of 1.5×10^3/100 μl). Cells are treated 24 h later with the drug for 24 h eventually followed by 24 h of recovery in drug-free medium. At the end of the treatments, 20 μl of CellTiter 96 Non-Radioactive Cell Proliferation Assay (MTT; Promega, Milano, Italy) are added to each well. Plates are then incubated for 4 h at 37° C. in the dark and analyzed with a reader of microplates (Gio. De Vita, Roma, Italy) at 492 nm. Experiments are performed in quadruplicate and repeated three times. Data are expressed in the following Tables 2a-c as the percentage compared to control cells considered as 100%.
# [4] = tested on: 2008 cell line (serous cystadenocarcinoma of the ovary); assay: Cell growth assay (crystal violet dye), 2008 cells; format: cell-based, human; conditions: read-out: IC50 (cell growth inhibition)
# Protocol: (§5) For the determination of the in vitro antitumour activities, the compounds of the invention were assayed in a panel of sensible, resistant and refractary tumour cell lines, which are only exemplary for the antitumour activity of the inventive compounds, and are not to be construed as limiting their antitumour activities only to the cell lines set forth herein. Cell lines. The 2008 cell line was established from a patient with serous cystadenocarcinoma of the ovary and the cDDP-resistant C13* subline, about 15-fold resistant to cDDP, was derived from the parent 2008 cell line by monthly exposure to cDDP, followed by chronic exposure to step-wise increases in cDDP concentration (Cancer Research 52, 1895, 1992). The cell lines were grown as monolayers in RPMI 1640 medium containing 10% heat-inactivated fetal bovine serum and 50 μg/mL gentamycin sulfate. All cell media and serum were purchased from (Lonza, Verviers, Belgium). Cultures were equilibrated with humidified 5% CO2 in air at 37° C. All studies were performed in Mycoplasma negative cells, as routinely determined with the MycoAlert Mycoplasma detection kit (Lonza, Walkersville, Md., USA).
# as §2
# HeLa cells = assay: Cell proliferation MTT assay, HeLa; format: cell-based; conditions: Homo sapiens, 24 h, read-out: MTT cell proliferation, percentage compared to control cells considered as 100%; for activity at 1 µM: compound at 1 uM; for activity at 10 µM: compound at 10 uM
# Protocol: as §3, §4
# [5] = tested on: cDDP-resistant C13* subline; assay: Cell growth assay (crystal violet dye), C13* cells; format: cell-based, human; conditions: read-out: IC50 (cell growth inhibition)
# Protocol: as §5, §2
# tumour cell lines = assay: In vitro antitumour activity, panel of tumour cell lines (statement in words); format: cell-based, human; conditions: compared with the novel compounds / prior art protoberberines
# Protocol: as §5
# [6] = 24 h + 24 h recovery in drug-free medium
# [7] = Homo sapiens, 2008 cells, 72 hrs exposure
# [8] = Homo sapiens, C13* cells, 72 hrs exposure
SMILES,IC50 ([1]; Homo sapiens) [nM],"IC50 ([2]; Homo sapiens, A2780C/P) [nM]",activity at 1 µM [3] [%],"activity at 10 µM [3, 6] [%]",activity at 10 µM ([3]; 24 h) [%],"IC50 [4, 7] [µM]",activity at 1 µM (HeLa cells; [6]) [%],activity at 1 µM (HeLa cells) [%],activity at 10 µM (HeLa cells; [6]) [%],activity at 10 µM (HeLa cells) [%],"IC50 [5, 8] [µM]",IC50 [1] [nM],"IC50 ([4]; 2008 cells, 72 hrs exposure) [µM]",IC50 [2] [nM],"IC50 ([5]; C13* cells, 72 hrs exposure) [µM]",antitumour activity (in words) (tumour cell lines),"IC50 ([4]; Homo sapiens, 72 h) [µM]","IC50 ([5]; Homo sapiens, C13, 72 h) [µM]"
"COc1ccc2c(CC(=O)n3ccc4cc(Cl)ccc43)c3[n+](cc2c1OC)CCc1cc2c(cc1-3)OCO2 [NAX030, 13-[(5-chloroindol-1-yl)carbonylmethyl]-9,10-dimethoxy-5,6-dihydrobenzo[g]-1,3-benzodioxolo[5,6-a]quinolizinium iodide]",4500,2500,,,,,,,,,,,,,,,,
"COc1ccc2c(CCC(c3ccccc3)c3ccccc3)c3[n+](cc2c1OC)CCc1cc2c(cc1-3)OCO2 [NAX018, 13-(3,3-diphenylpropyl)-9,10-dimethoxy-5,6-dihydrobenzo[g]-1,3-benzodioxolo[5,6-a]quinolizinium iodide]",400,1000,68.2,13.7,30.6,4,45.8,64,11.3,40.6,0.66,,,,,,,
"COc1ccc2c(CCc3c[nH]c4ccccc34)c3[n+](cc2c1OC)CCc1cc2c(cc1-3)OCO2 [NAX019, 13-[2-(indol-3-yl)ethyl]-9,10-dimethoxy-5,6-dihydrobenzo[g]-1,3-benzodioxolo[5,6-a]quinolizinium iodide]",,,,32.1,6,,,,33.5,62.8,,,,,,,,
"N.N.[Cl][Pt][Cl] [cDDP, cis-diaminedichloroplatinum, reference compound]",,,,,,,,,,,,2000,3.6,20000,17,,,
"COc1ccc2c(CCc3ccc(Cl)cc3)c3[n+](cc2c1OC)CCc1cc2c(cc1-3)OCO2 [NAX014, 13-[2-(4-chlorophenyl)ethyl]-9,10-dimethoxy-5,6-dihydrobenzo[g]-1,3-benzodioxolo[5,6-a]quinolizinium iodide]",1400,1000,,15.4,49.5,5.8,59.4,92.1,45.4,71.9,1.8,,,,,,,
"COc1ccc(CCc2c3[n+](cc4c(OC)c(OC)ccc24)CCc2cc4c(cc2-3)OCO4)cc1 [NAX013, 13-[2-(4-methoxyphenyl)ethyl]-9,10-dimethoxy-5,6-dihydrobenzo[g]-1,3-benzodioxolo[5,6-a]quinolizinium iodide]",1000,1000,58.1,60.2,10,6.6,,,60.8,74.5,2.4,,,,,,,
"COc1cc([C@@H]2c3cc4c(cc3[C@@H](O[C@@H]3O[C@@H]5CO[C@@H](C)O[C@H]5[C@H](O)[C@H]3O)[C@H]3COC(=O)[C@H]23)OCO4)cc(OC)c1O [Etoposide, 4′-demethylepipodophyllotoxin 9-[4,6-O-ethylidene-beta-D-glucopyranoside], reference compound]",,,139,96.2,104,,59.5,94.3,1,74.8,,,,,,,,
"O=c1[nH]cc(F)c(=O)[nH]1 [5-FU, 5-fluoro-2,4(1H,3H)-pyrimidinedione, reference compound]",,,,,,10,,,,,8,,,,,,,
"COc1ccc2c(CCCc3ccccc3)c3[n+](cc2c1OC)CCc1cc2c(cc1-3)OCO2 [NAX012, 13-(3-phenylpropyl)-9,10-dimethoxy-5,6-dihydrobenzo[g]-1,3-benzodioxolo[5,6-a]quinolizinium iodide]",600,600,52.1,34.8,0,3.6,,,41.3,72.4,2.2,,,,,,,
"COc1ccc2c(Cc3ccccc3)c3[n+](cc2c1OC)CCc1cc2c(cc1-3)OCO2.[I-] [Comp Ex, 13-benzyl-9,10-dimethoxy-5,6-dihydrobenzo[g]-1,3-benzodioxolo[5,6-a]quinolizinium iodide, reference compound]",2500,3300,119,22.2,20.4,9.2,93.6,139,74.5,98,5,,,,,much lower antitumour activity,,
"COc1ccc2cc3[n+](cc2c1OC)CCc1cc2c(cc1-3)OCO2 [Berberine, 9,10-dimethoxy-5,6-dihydrobenzo[g]-1,3-benzodioxolo[5,6-a]quinolizinium chloride, reference compound]",4000,2500,201,93.3,166,,168,178,92.9,121,,,,,,,10,6

# Source: patent US8188109B2, “Benzoquinolizinium salt derivatives as anticancer agents” (Naxospharma S.r.l., priority 2009, dated 2012)
